Key:
[1] = human, serum, 4383 h
[2] = human, serum
[3] = Highest frequency of acute liver toxicity observed during clinical trials, expressed as a percentage. [column '% AIGUE' in source]; conditions: human
[4] = human, serum; remark: listed apart in the source
[5] = human
[6] = human; remark: listed apart in the source
[7] = human; remark: listed apart in the source
[8] = human; remark: listed apart in the source
[9] = human; remark: listed apart in the source
[10] = human; remark: listed apart in the source
[11] = human; remark: listed apart in the source
[12] = human; remark: listed apart in the source
[13] = Times to onset, minimal and maximal, observed in the indexed observations. [column 'DELAI' in source]; conditions: human
[14] = human; remark: listed apart in the source
[15] = Highest frequency of moderate liver toxicity observed during clinical trials, expressed as a percentage. [column '% BIOL' in source]; conditions: human
[16] = human; remark: listed apart in the source
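For Hepatotoxicity (association with vascular disease) in this document: count of indexed literature references reporting vascular liver injury in humans, e.g. peliosis hepatitis, hepatic veno-occlusive disease or Budd-Chiari syndrome.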
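For Hepatotoxicity (benign tumour) in this document: value is a count of indexed literature references citing a benign tumour confirmed by histopathology.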
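For Hepatotoxicity (choleostasis) in this document: human cholestatic liver injury, shown by histopathology or by peak ALT or AST elevation over alkaline phosphatase ratio below 2, value counts indexed literature reports.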
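For Hepatotoxicity (chronic liver disease) in this document: chronic liver injury confirmed by histopathology or persistently raised serum aminotransferase activity beyond 6 months, value given as the count of indexed literature references.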
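For Hepatotoxicity (cirrhosis) in this document: value is a count of indexed literature references reporting cirrhosis confirmed by histopathology.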
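For Hepatotoxicity (cytolytic) in this document: human cytolytic liver injury, shown by histopathology or by a ratio above 5 of peak ALT or AST elevation to alkaline phosphatase elevation, value counts indexed references.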
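For Hepatotoxicity (granulomatous hepatitis) in this document: value is a count of indexed literature references reporting granulomatous liver disease confirmed by histopathology.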
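For Hepatotoxicity (malignant tumour) in this document: malignant tumour confirmed by histopathology, value gives the count of indexed literature references reporting it.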
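For Hepatotoxicity (severe hepatitis) in this document: human clinical data: severe hepatitis, meaning potentially life-threatening liver failure or clinically observed cases, the value counts how many indexed literature references report it.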
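For Hepatotoxicity (steatosis) in this document: steatosis confirmed by histopathology, value is the count of indexed references.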

| Compound | Hepatotoxicity (chronic liver disease) [1] | Hepatotoxicity (moderate) [2] | Hepatotoxicity (acute) [4] | Hepatotoxicity (animal toxicity known) [5] | Hepatotoxicity (benign tumour) [6] | Hepatotoxicity (cirrhosis) [8] | Hepatotoxicity (steatosis) [10] | Hepatotoxicity (malignant tumour) [11] | Hepatotoxicity (time to onset) [13] | Hepatotoxicity (association with vascular disease) [14] | Hepatotoxicity (acute) [3] | Hepatotoxicity (granulomatous hepatitis) [7] | Hepatotoxicity (choleostasis) [9] | Hepatotoxicity (cytolytic) [12] | Hepatotoxicity (moderate) [15] | Hepatotoxicity (severe hepatitis) [16] | also measured |
| --- | --- | --- | --- | --- | --- | --- | --- | --- | --- | --- | --- | --- | --- | --- | --- | --- | --- |
| Nc1ncn([C@@H]2O[C@H](CO)[C@@H](O)[C@H]2O)c(=O)n1 [AZACITIDINE] | 0 | 5 | 1 | yes | 0 | 0 | 0 | 0 | 1 week | 0 | – | – | – | – | – | – | Hepatotoxicity (acute) ([3]; Liver): 0%; Hepatotoxicity (granulomatous hepatitis) ([7]; Liver): 0; Hepatotoxicity (choleostasis) ([9]; Liver): 0; Hepatotoxicity (cytolytic) ([12]; Liver): 1; Hepatotoxicity (moderate) ([15]; Liver): 62.5%; Hepatotoxicity (severe hepatitis) ([16]; Liver): 2 |
| CCN1CC(CCN2CCOCC2)C(c2ccccc2)(c2ccccc2)C1=O (centres undefined) [DOXAPRAM] | 0 | 1 | 1 | yes | 0 | 0 | 1 | 0 | 1 day - 5 days | 0 | 0% | 0 | 0 | 1 | 0% | 0 | – |
| O=c1[nH]c(=O)n([C@@H]2O[C@H](CO)[C@@H](O)[C@@H]2F)cc1I [FIALURIDINE] | 0 | 0 | 1 | yes | 0 | 0 | 1 | 0 | 9.5 weeks - 4 months | 0 | 33.3% | 0 | 0 | 0 | 0% | 3 | – |
| COc1ccc2nc(NC(=O)Nc3ccccc3)sc2c1 [FRENTIZOLE] | 1 | 4 | 2 | yes | 0 | 0 | 0 | 0 | 1 week - 1 month | 0 | 0% | 0 | 0 | 2 | 70% | 1 | – |
| O=C(O)/C=C/C(=O)O [FUMARIC ACID] | 0 | 6 | 0 | yes | 0 | 0 | 0 | 0 | 2 months | 0 | 0% | 0 | 0 | 0 | 59% | 0 | – |
| CCN(CC)CCNc1ccc(CO)c2sc3ccccc3c(=O)c12 [HYCANTHONE] | 1 | 1 | 7 | yes | 0 | 0 | 1 | 0 | 1 day - 18 days | 0 | 0% | 0 | 1 | 3 | 0% | 16 | – |
| CC(C)[C@](O)(C(=O)OCC1=CC[N+]2([O-])CC[C@@H](O)[C@@H]12)[C@H](C)O (some centres undefined) [INDICINE N-OXIDE] | 0 | 8 | 6 | yes | 0 | 0 | 0 | 0 | 1 cure - 2 cures | 1 | 22.7% | 0 | 0 | 4 | 62.5% | 4 | – |
| N[C@@H](Cc1cc(I)c(Oc2cc(I)c(O)c(I)c2)c(I)c1)C(=O)O [LEVOTHYROXINE] | 0 | 1 | 1 | yes | 0 | 1 | 0 | 0 | 12 days - 4 years | 0 | 0% | 0 | 0 | 0 | 0% | 0 | – |
| Cl[C@H]1[C@H](Cl)[C@@H](Cl)[C@@H](Cl)[C@H](Cl)[C@H]1Cl [LINDANE] | 0 | 0 | 2 | yes | 0 | 0 | 0 | 0 | 3 weeks | 0 | – | – | – | – | – | – | Hepatotoxicity (acute) ([3]; Liver): 0%; Hepatotoxicity (granulomatous hepatitis) ([7]; Liver): 0; Hepatotoxicity (choleostasis) ([9]; Liver): 0; Hepatotoxicity (cytolytic) ([12]; Liver): 1; Hepatotoxicity (moderate) ([15]; Liver): 0%; Hepatotoxicity (severe hepatitis) ([16]; Liver): 0 |
| O=NN(CCCl)C(=O)NC1CCCCC1 [LOMUSTINE] | 0 | 4 | 2 | yes | 0 | 0 | 0 | 0 | 2 days - 4 months | 0 | 0% | 0 | 2 | 1 | 39% | 1 | – |
| OC(c1cc(C(F)(F)F)nc2c(C(F)(F)F)cccc12)C1CCCCN1 (centres undefined) [MEFLOQUINE] | 0 | 5 | 2 | yes | 0 | 0 | 1 | 0 | 2 weeks - 3 weeks | 0 | 0% | 0 | 0 | 1 | 22.5% | 0 | – |
| [N-]=[N+]=O [NITROUS OXIDE] | 0 | 1 | 1 | yes | 0 | 0 | 0 | 0 | 9 days | 0 | 0% | 0 | 0 | 1 | 0% | 0 | – |
| CNCCC=C1c2ccccc2CCc2ccccc21 [NORTRIPTYLINE] | 0 | 1 | 2 | yes | 0 | 0 | 0 | 0 | 2 months - 3 months | 0 | – | – | – | – | – | – | Hepatotoxicity (acute) ([3]; Liver): 0%; Hepatotoxicity (granulomatous hepatitis) ([7]; Liver): 0; Hepatotoxicity (choleostasis) ([9]; Liver): 0; Hepatotoxicity (cytolytic) ([12]; Liver): 2; Hepatotoxicity (moderate) ([15]; Liver): 0%; Hepatotoxicity (severe hepatitis) ([16]; Liver): 2 |
| NNCCc1ccccc1 [PHENELZINE] | 0 | 1 | 6 | yes | 0 | 1 | 0 | 1 | 3 weeks - 5 months | 0 | – | – | – | – | – | – | Hepatotoxicity (acute) ([3]; Liver): 0%; Hepatotoxicity (granulomatous hepatitis) ([7]; Liver): 0; Hepatotoxicity (choleostasis) ([9]; Liver): 0; Hepatotoxicity (cytolytic) ([12]; Liver): 6; Hepatotoxicity (moderate) ([15]; Liver): 0%; Hepatotoxicity (severe hepatitis) ([16]; Liver): 7 |

— ChEMBL document CHEMBL3137667, “[Drug-induced liver injury; fourteenth updated edition of the bibliographic database of liver injuries and related drugs]” (Gastroenterol Clin Biol, 2004)
